Drawing on US9994590B2, “Substituted [1,2,4]triazolo[1,5-a]pyrazines as phosphodiesterase inhibitors” (Sunovion Pharamaceuticals Inc., priority 2012, dated 2018), this text covers IC50 for 16 molecules.

Sequence of recombinant human PDE-10 enzyme (human PDE-10A) (Q9Y233 whole entry): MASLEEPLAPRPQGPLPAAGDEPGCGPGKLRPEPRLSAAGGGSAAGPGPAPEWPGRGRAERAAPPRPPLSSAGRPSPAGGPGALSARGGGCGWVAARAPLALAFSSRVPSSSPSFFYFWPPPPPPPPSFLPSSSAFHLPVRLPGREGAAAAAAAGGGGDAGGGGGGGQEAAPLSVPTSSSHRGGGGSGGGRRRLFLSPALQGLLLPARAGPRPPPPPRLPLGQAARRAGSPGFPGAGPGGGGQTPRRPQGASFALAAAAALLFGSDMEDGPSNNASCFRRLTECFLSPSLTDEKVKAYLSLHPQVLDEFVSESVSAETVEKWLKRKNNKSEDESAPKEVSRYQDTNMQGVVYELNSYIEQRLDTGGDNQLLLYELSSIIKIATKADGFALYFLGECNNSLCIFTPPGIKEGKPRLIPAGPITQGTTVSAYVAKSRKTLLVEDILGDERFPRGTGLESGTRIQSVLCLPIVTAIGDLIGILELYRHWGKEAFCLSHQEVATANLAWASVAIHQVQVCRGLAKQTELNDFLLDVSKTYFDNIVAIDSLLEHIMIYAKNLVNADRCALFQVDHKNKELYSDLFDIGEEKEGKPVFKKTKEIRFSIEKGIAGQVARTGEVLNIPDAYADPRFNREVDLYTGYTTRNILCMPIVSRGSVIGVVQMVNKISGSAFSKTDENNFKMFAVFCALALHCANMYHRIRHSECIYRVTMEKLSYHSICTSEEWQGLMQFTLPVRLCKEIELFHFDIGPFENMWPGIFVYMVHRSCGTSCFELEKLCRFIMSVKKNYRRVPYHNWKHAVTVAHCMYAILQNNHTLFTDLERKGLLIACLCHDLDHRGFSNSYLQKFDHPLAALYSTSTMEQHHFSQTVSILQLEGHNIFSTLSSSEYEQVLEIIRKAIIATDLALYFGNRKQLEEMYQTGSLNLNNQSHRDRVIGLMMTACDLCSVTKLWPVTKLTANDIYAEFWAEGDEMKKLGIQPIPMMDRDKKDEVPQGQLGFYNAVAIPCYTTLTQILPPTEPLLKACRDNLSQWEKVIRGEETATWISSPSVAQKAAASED

In this experiment the target is recombinant human PDE-10 enzyme (human PDE-10A) (Homo sapiens (Human), UniProt Q9Y233). The experiment in a line: human PDE-10 inhibition assay (Molecular Devices IMAP PDE Fluorescence Polarization, enzyme assay IC50). Format: biochemical. Conditions: Fluorescein-labeled cAMP/cGMP substrate, 40-minute incubation at 37° C. Here is the method:
In one embodiment, the compounds provided herein were assayed for their ability to inhibit human PDE-10A. In one embodiment, the activities of the compounds were determined using the Molecular Devices IMAP PDE Fluorescence Polarization assay using recombinant human PDE-10 enzyme expressed in a baculoviral system. Briefly, 10 μL of a compound (0.2 nM-20 μM) was added to either a 96-well half area black plate or a 384-well black plate along with 10 μL of Fluorescein-labeled cAMP/cGMP substrate as per manufacturer's instructions and 10 μL of PDE enzyme (activity 0.1 U). Following a 40-minute incubation at 37° C., 60 μL of IMAP binding reagent was added. The plate was then read on a Perkin Elmer Victor (480-535 nm). The data was analyzed using Prism Software (GraphPad Inc, San Diego, Calif.).
In the case of `Fc1ccn2cc(C3CCC3c3cn4cccc(Cl)c4n3)nc2c1` (stereo not shown) [Compound 24, 8-Chloro-2-(2-(7-fluoroimidazo[1,2-a]pyridin-2-yl)cyclobutyl)imidazo[1,2-a]pyridine], the IC50 was greater than 500 nM.

Consider `Cc1ncc(C)n2nc(C3CC3c3nc4c(C5CC5)cccn4c3C)nc12` (stereo not shown) [Compound 5, 2-(2-(8-Cyclopropyl-3-methylimidazo[1,2-a]pyridin-2-yl)cyclopropyl)-5,8-dimethyl-[1,2,4]triazolo[1,5-a]pyrazine], for which the IC50 fell in the range of 10 to 100 nM. For the molecule `Cc1ncc(C)n2nc([C@@H]3C[C@H]3c3nc4c5cccnc5ccc4n3C)nc12` [Compound 29], the IC50 was no more than 10 nM. Turning to `COc1cccn2c(F)c([C@@H]3C[C@H]3c3nc4c(C)ncc(C)n4n3)nc12` (single isomer, unassigned) [Compound 57, 2-(2-(3-fluoro-8-methoxyimidazo[1,2-a]pyridin-2-yl)cyclopropyl)-5,8-dimethyl-[1,2,4]triazolo[1,5-a]pyrazine], the 50% inhibitory concentration (IC50) lay within 10 to 100 nM. `Fc1ccn2cc(C3CCC3c3cn4cccc(Cl)c4n3)nc2c1` (racemic) [Compound 58, (±)-8-chloro-2-(2-(7-fluoroimidazo[1,2-a]pyridin-2-yl)cyclobutyl)imidazo[1,2-a]pyridine]: the half-maximal inhibitory concentration (IC50) is greater than 500 nM. To `COc1ccn2c(C)c(C3CC3c3nc4c(C)ncc(C)n4n3)nc2c1` (stereo not shown) [Compound 13] belongs 100 to 500 nM.

On to `COc1cccn2c(F)c([C@@H]3C[C@H]3c3nc4c(C)ncc(C)n4n3)nc12` (single isomer, unassigned) [Compound 56, 2-(2-(3-fluoro-8-methoxyimidazo[1,2-a]pyridin-2-yl)cyclopropyl)-5,8-dimethyl-[1,2,4]triazolo[1,5-a]pyrazine], for which the IC50 was greater than 500 nM. On to `Cc1ccn2cc(C3CC3c3nc4c(C)ncc(C)n4n3)nc2c1` (stereo not shown) [Compound 12, 5,8-Dimethyl-2-(2-(7-methylimidazo[1,2-a]pyridin-2-yl)cyclopropyl)-[1,2,4]triazolo[1,5-a]pyrazine], for which the IC50 was greater than 500 nM. To `COc1ccn2cc(C3CC3c3nc4c(C)ncc(C)n4n3)nc2c1C` (stereo not shown) [Compound 2, 2-(2-(7-Methoxy-8-methylimidazo[1,2-a]pyridin-2-yl)cyclopropyl)-5,8-dimethyl-[1,2,4]triazolo[1,5-a]pyrazine] belongs greater than 500 nM.

Regarding `COc1cccc2[nH]c(C3CC3c3nc4c(C)ncc(C)n4n3)nc12` (racemic) [Compound 47, (±)-2-(2-(4-methoxy-1H-benzo[d]imidazol-2-yl)cyclopropyl)-5,8-dimethyl-[1,2,4]triazolo[1,5-a]pyrazine], the IC50 was in the range of 100 to 500 nM.

In the case of `Clc1cccn2cc(C3CC3c3cn4cccc(Cl)c4n3)nc12` (stereo not shown) [Compound 11], the IC50 was greater than 500 nM. Take `Fc1ccn2cc(C3CC3c3cn4ccc(F)cc4n3)nc2c1` (stereo not shown) [Compound 9]: the IC50 was greater than 500 nM. To `Cc1ncc(C)n2nc(C3CC3c3nc4c(OC(F)F)cccn4c3C)nc12` (racemic) [Compound 31, (±)-2-(2-(8-(difluoromethoxy)-3-methylimidazo[1,2-a]pyridin-2-yl)cyclopropyl)-5,8-dimethyl-[1,2,4]triazolo[1,5-a]pyrazine] belongs 100 to 500 nM; to `Cc1ncc(C)n2nc(C3CC3c3nc4c5cccnc5ccn4c3C)nc12` (stereo not shown) [Compound 1, 2-(2-(5,8-Dimethyl-[1,2,4]triazolo[1,5-a]pyrazin-2-yl)cyclopropyl)-3-methylimidazo[2,1-f][1,6]naphthyridine], no more than 10 nM; to `Cc1ncc(C)n2nc(C3CC3c3nc4cc(F)ccn4c3C)nc12` (stereo not shown) [Compound 4], greater than 500 nM. Take `Cc1ncc(C)n2nc(C3CC3c3cn4ccc5c(c4n3)OCCO5)nc12` (racemic) [Compound 39, (±)-9-(2-(5,8-dimethyl-[1,2,4]triazolo[1,5-a]pyrazin-2-yl)cyclopropyl)-2,3-dihydro-[1,4]dioxino[2,3-c]imidazo[1,2-a]pyridine]: the concentration for half-maximal inhibition (IC50) fell in the range of 10 to 100 nM.
